Converted amounts (≈) assume the structure as drawn.
Assays:
[1] = test system: S. aureus FDA209P; assay: Minimum inhibition concentration (MIC), agar double dilution method; assay type: cell-based, Staphylococcus aureus; conditions: Mueller hinton agar
Protocol: (§1) Test 1; Minimum Inhibition Concentration (MIC)
(§2) MIC was measured, based on the standard method of Japan Society of Chemotherapy, on a BHI agar medium (Brain heart-infusion agar, made by Difco Laboratories Inc.(USA)) with respect to Pasteurella and on a Mueller hinton agar medium (Mueller hinton agar, made by Difco, Laboratories Inc.(USA)) with respect to the other test bacteria in both cases according to the double dilution method.

[2] = test system: S. aureus Smith (virulent strain); assay: microbe, parasite or virus in culture; assay type: cell-based, Staphylococcus aureus; conditions: S. aureus Smith (virulent strain); Mueller hinton agar
Protocol: as §1, §2

[3] = test system: Enterobacter aerogenes ATCC13048; assay: Minimum inhibition concentration (MIC), agar double dilution method; assay type: cell-based; conditions: Mueller hinton agar
Protocol: as §1, §2

[4] = test system: Escherichia coli NIHJ; assay: as above; assay type: cell-based; conditions: Mueller hinton agar
Protocol: as §1, §2

[5] = test system: Klebsiella pneumoniae PCI602; assay: as above; assay type: cell-based; conditions: Mueller hinton agar
Protocol: as §1, §2

[6] = test system: Micrococcus luteus PCI1001; assay: as above; assay type: cell-based; conditions: Mueller hinton agar
Protocol: as §1, §2

[7] = test system: Pasteurella haemolytica BBPO101 N791; assay: as above; assay type: cell-based; conditions: Pasteurella haemolytica BBPO101 N791, strain from cattle; BHI agar
Protocol: as §1, §2

[8] = test system: Proteus vulgaris OX19; assay: as above; assay type: cell-based; conditions: Mueller hinton agar
Protocol: as §1, §2

[9] = test system: Salmonella enteritidis 1891; assay: as above; assay type: cell-based; conditions: Mueller hinton agar
Protocol: as §1, §2

[10] = test system: Serratia marcescens; assay: as above; assay type: cell-based; conditions: Mueller hinton agar
Protocol: as §1, §2

[11] = test system: Shigella dysenteriae JS11910; assay: as above; assay type: cell-based; conditions: Shigella dysenteriae JS11910; Mueller hinton agar
Protocol: as §1, §2

[12] = test system: Staphylococcus aureus 193; assay: as above; assay type: cell-based; conditions: Mueller hinton agar
Protocol: as §1, §2

[13] = test system: E. coli K-12 R-5; assay: as above; assay type: cell-based, Escherichia coli; conditions: Mueller hinton agar
Protocol: as §1, §2

[14] = test system: Past haemolytica BAPO103 S801; assay: as above; assay type: cell-based, Pasteurella haemolytica; conditions: Past haemolytica BAPO103 S801, strain from poultry; BHI agar
Protocol: as §1, §2

[15] = test system: Past haemolytica BBPO102 N811; assay: as above; assay type: cell-based, Pasteurella haemolytica; conditions: Past haemolytica BBPO102 N811, strain from cattle; BHI agar
Protocol: as §1, §2

[16] = test system: Past. multocida BOPO305 M-17; assay: as above; assay type: cell-based, Pasteurella multocida; conditions: Past. multocida BOPO305 M-17, strain from a sheep; BHI agar
Protocol: as §1, §2

[17] = test system: Past. multocida BSPO302 No. 6; assay: as above; assay type: cell-based, Pasteurella multocida; conditions: Past. multocida BSPO302 No. 6, strain from a pig; BHI agar
Protocol: as §1, §2

[18] = test system: Bacillus subtilis NRRL B-558; assay: as above; assay type: cell-based; conditions: Bacillus subtilis NRRL B-558; Mueller hinton agar
Protocol: as §1, §2

[19] = test system: ICR mice; assay: Toxicity test, intravenous or subcutaneous injection; assay type: in vivo
[20] = intravenous injection, 0.25 mg/mouse
[21] = intravenous injection, 0.5 mg/mouse
[22] = intravenous injection, 1.0 mg/mouse
[23] = subcutaneous injection, 1.0 mg/mouse
[24] = subcutaneous injection, 2.0 mg/mouse
[25] = subcutaneous injection, 3.0 mg/mouse
[26] = subcutaneous injection, 4.0 mg/mouse

Structure (SMILES) | MIC [1] [µg/mL] | MIC [2] [µg/mL] | MIC [3] [µg/mL] | MIC [4] [µg/mL] | MIC [5] [µg/mL] | MIC [6] [µg/mL] | MIC [7] [µg/mL] | MIC [8] [µg/mL] | MIC [9] [µg/mL] | MIC [10] [µg/mL] | MIC [11] [µg/mL] | MIC [12] [µg/mL] | MIC [13] [µg/mL] | MIC [14] [µg/mL] | MIC [15] [µg/mL] | MIC [16] [µg/mL] | MIC [17] [µg/mL] | MIC [18] [µg/mL] | also measured
CC[C@H]1OC(=O)C[C@@H](O)[C@H](C)[C@@H](O[C@@H]2O[C@H](C)C(O)C(N(C)C)C2O)[C@@H](CCN2CC(C)CC(C)C2)C[C@@H](C)C(=O)/C=C/C(C)=C/[C@@H]1CN1CC(C)CC(C)C1 (stereo partly drawn) [DMP-MT] | 1.56 (≈ 1.97 µM) | 6.25 (≈ 7.91 µM) | 25 (≈ 31.6 µM) | 6.25 (≈ 7.91 µM) | 6.25 (≈ 7.91 µM) | 1.56 (≈ 1.97 µM) | 0.39 (≈ 0.494 µM) | 25 (≈ 31.6 µM) | 3.13 (≈ 3.96 µM) | 100 (≈ 127 µM) | 12.5 (≈ 15.8 µM) | 3.13 (≈ 3.96 µM) | >100 | 1.56 (≈ 1.97 µM) | 0.39 (≈ 0.494 µM) | 0.39 (≈ 0.494 µM) | 0.78 (≈ 0.987 µM) |  | 
CC[C@H]1OC(=O)C[C@@H](O)[C@H](C)[C@@H](O[C@@H]2O[C@H](C)C(O)C(N(C)C)C2O)[C@@H](CCN2CCCCCCC2)C[C@@H](C)C(=O)/C=C/C(C)=C/[C@@H]1CN1CCCCCCC1 (stereo partly drawn) [Compound C-8] | 0.78 (≈ 0.987 µM) | 1.56 (≈ 1.97 µM) | 6.25 (≈ 7.91 µM) | 1.56 (≈ 1.97 µM) | 3.13 (≈ 3.96 µM) | 0.20 (≈ 0.253 µM) | 0.20 (≈ 0.253 µM) | 6.25 (≈ 7.91 µM) | 0.78 (≈ 0.987 µM) | 12.5 (≈ 15.8 µM) | 0.78 (≈ 0.987 µM) | 0.78 (≈ 0.987 µM) | 1.56 (≈ 1.97 µM) | 1.56 (≈ 1.97 µM) | 0.39 (≈ 0.494 µM) | 0.78 (≈ 0.987 µM) | 0.39 (≈ 0.494 µM) | 3.13 (≈ 3.96 µM) | Dissection finding [19, 20]: no abnormal finding; Surviving number [19, 20]: 3/3; Dissection finding [19, 21]: no abnormal finding; Surviving number [19, 21]: 3/3; Dissection finding [19, 22]: no abnormal finding; Surviving number [19, 22]: 3/3; Surviving number ([19]; intravenous injection, 1.5 mg/mouse): 0/1 (immediate death); Surviving number ([19]; intravenous injection, 2.0 mg/mouse): 0/3 (immediate death); Surviving number ([19]; intravenous injection, 4.0 mg/mouse): 0/1 (immediate death); Dissection finding [19, 23]: Sores and alopecia at the administration part; Surviving number / number of used animals [19, 23]: 2/2; Dissection finding [19, 24]: Sores and alopecia at the administration part; Surviving number / number of used animals [19, 24]: 2/2; Dissection finding [19, 25]: Sores and alopecia at the administration part; Surviving number / number of used animals [19, 25]: 2/2; Dissection finding [19, 26]: Sores and alopecia at the administration part; Surviving number / number of used animals [19, 26]: 2/2
CC[C@H]1OC(=O)C[C@@H](O)[C@H](C)[C@@H](O[C@@H]2O[C@H](C)C(O)C(N(C)C)C2O)[C@@H](CCN(C)Cc2ccccc2)C[C@@H](C)C(=O)/C=C/C(C)=C/[C@@H]1CN(C)Cc1ccccc1 (stereo partly drawn) [Compound C-4] | 0.39 (≈ 0.484 µM) | 6.25 (≈ 7.75 µM) | 12.5 (≈ 15.5 µM) | 6.25 (≈ 7.75 µM) | 6.25 (≈ 7.75 µM) | 0.20 (≈ 0.248 µM) | 0.39 (≈ 0.484 µM) | 12.5 (≈ 15.5 µM) | 1.56 (≈ 1.94 µM) | 100 (≈ 124 µM) | 3.13 (≈ 3.88 µM) | 0.39 (≈ 0.484 µM) | >100 | 6.25 (≈ 7.75 µM) | 0.39 (≈ 0.484 µM) | 0.76 (≈ 0.943 µM) | 1.56 (≈ 1.94 µM) |  | 
CC[C@H]1OC(=O)C[C@@H](O)[C@H](C)[C@@H](O[C@@H]2O[C@H](C)C(O)C(N(C)C)C2O)[C@@H](CCN(C)C)C[C@@H](C)C(=O)/C=C/C(C)=C/[C@@H]1CN(C)C (stereo partly drawn) [Compound C-1] | 50 (≈ 76.5 µM) | 100 (≈ 153 µM) | 50 (≈ 76.5 µM) | 12.5 (≈ 19.1 µM) | 25 (≈ 38.2 µM) | 3.13 (≈ 4.79 µM) | 6.25 (≈ 9.56 µM) | 100 (≈ 153 µM) | 6.25 (≈ 9.56 µM) | >100 | 50 (≈ 76.5 µM) | 50 (≈ 76.5 µM) | >100 | 50 (≈ 76.5 µM) | 6.25 (≈ 9.56 µM) | 6.25 (≈ 9.56 µM) | 12.5 (≈ 19.1 µM) | 100 (≈ 153 µM) | 
CC[C@H]1OC(=O)C[C@@H](O)[C@H](C)[C@@H](O[C@@H]2O[C@H](C)C(O)C(N(C)C)C2O)[C@@H](CCN(Cc2ccccc2)Cc2ccccc2)C[C@@H](C)C(=O)/C=C/C(C)=C/[C@@H]1CN(Cc1ccccc1)Cc1ccccc1 (stereo partly drawn) [Compound C-5] | 12.5 (≈ 13 µM) | 50 (≈ 52.2 µM) | >100 | >100 | >100 | 6.25 (≈ 6.52 µM) | 50 (≈ 52.2 µM) | >100 | >100 | 100 (≈ 104 µM) | >100 | 12.5 (≈ 13 µM) | >100 | >100 | 50 (≈ 52.2 µM) | >100 | >100 | 50 (≈ 52.2 µM) | 
CCCCCCN(CCCCCC)CC[C@H]1C[C@@H](C)C(=O)/C=C/C(C)=C/[C@H](CN(CCCCCC)CCCCCC)[C@@H](CC)OC(=O)C[C@@H](O)[C@H](C)[C@H]1O[C@@H]1O[C@H](C)C(O)C(N(C)C)C1O (stereo partly drawn) [Compound C-2] | 6.25 (≈ 6.69 µM) | 6.25 (≈ 6.69 µM) | >100 | >100 | >100 | 6.25 (≈ 6.69 µM) | 12.5 (≈ 13.4 µM) | >100 | >100 | >100 | >100 | 3.13 (≈ 3.35 µM) | >100 | 100 (≈ 107 µM) | 12.5 (≈ 13.4 µM) | 50 (≈ 53.5 µM) | 50 (≈ 53.5 µM) | 12.5 (≈ 13.4 µM) | 

— patent publication US6514946B1, “Macrolide antibiotics and treatment and prophylaxis of pasteurellosis using the same” (Zaidan Hojin Biseibutsu Kagaku Kenkyu Kai, priority 1999, dated 2003)
